Measurements: article PMC7851395 (British Journal of Cancer, 2020)

What was measured:
P-STAT3 = assay: Western blot of STAT3 phosphorylation; format: cell-based, human; settings: H460, A549 and PC-9 cells, 12 h, concentration-dependently
Protocol: Tissue proteins were extracted with tissue protein lysate buffer. Cells were grown to different densities and extracted with cell protein lysate buffer. The protein was mixed with loading buffer and boiled for 10 min at 100 °C, then loaded and separated by 10% or 12% sodium dodecyl sulfate-polyacrylamide gel (SDS-PAGE) and then transferred onto a PVDF membrane blocking with 5% skim milk. The blots were incubated overnight with specific primary antibodies at 4 °C. On the second day, after washing with TBST (a mixture of tris-buffered saline (TBS) and Tween 20) three times, the […] membranes were incubated with horseradish peroxidase-conjugated secondary antibodies for 1 h. The immunoreactive bands were visualised with enhanced chemiluminescence reagent.

[1] = test system: normal lung cells BEAS-2B; assay: MTT cytotoxicity assay, normal lung cells BEAS-2B; format: cell-based, human
Protocol: (§1) The cytotoxicity and viability of human NSCLC cells and normal cells were determined by MTT assay. MTT assay was performed as described previously.[22] MTT assay was used to determine the cell cytotoxicity and viability in human NSCLC cells. Cells (5 × 10^3 cells/well) were plated in 96-well plates and attached overnight. After the proper treatment, the MTT solution was added at 25 µL/well and incubated at 37 °C for 4 h. The formazan crystals were dissolved in 150 µL of DMSO, and the optical density (OD) was measured using a Microplate Reader at 490 nm. The cell viability was calculated by the following formula: viability = (average OD values of treatment wells/average OD values of vehicle control wells) × 100%. And half-maximal inhibitory concentration (IC50) values were determined by GraphPad Pro Prism 7.0.

H460 and PC-9 cells = assay: Cell proliferation in cells transfected with CDK9 siRNA or control siRNA; format: cell-based, human
Protocol: as §1
The siRNA targeting human CDK9 was purchased from Genepharma (Shanghai, China) with the following sequence: siCDK9-1: 5′-[…] TT-3′, siCDK9-2: 5′-[…]-3′, siCDK9-3: 5′-[…]-3′. Cells were transfected with 50 nM siRNA using Lipofectamine 3000 (Invitrogen, CA, USA) for 48 h.

STAT3 = STAT3 luciferase-report assay; format: cell-based, human; settings: PC-9 and H460 cells, 0-200 nM, 12 h
Protocol: STAT3 activation was detected by the STAT3 luciferase reporter plasmid (PGLSTAT3-LUC), as was previously described.[23] Simply put, PC-9 and H460 cells were seeded in 24-well plates and incubated for 24 h before transfection. The cells were grown to different densities and co-transfected with pGLSTAT3-Luc and pRL-TK (a plasmid encoding Renilla luciferase) for 6 h using Lipofectamine 3000 (Invitrogen, Carlsbad, CA, USA). Finally, the cells were treated with different concentrations of […] for 12 h. Luciferase activity was assessed by SpectraMax ID3 (Molecular Devices, San Jose, CA, USA). The inhibition of STAT3 activity by acetyl-bufalin was calculated as the ratio between the value of firefly and Renilla luciferase activity. Each experiment was done in triplicate in three independent experiments.

PC-9 cells = assay: Wound-healing migration assay; format: cell-based, human; settings: 25, 50, 100 nM, 48 h
Protocol: The ability of cell migration was evaluated by wound-healing assay. The cells grew to 80–90% confluence in six-well plates and then scraped the cell monolayer at the centre of the wells with the tip of a sterile 10 μL pipette to form a clean, straight wound area. Then, the wells were washed with PBS to remove detached cells from the plates. After that, cells were cultured in serum-free RPMI medium with vehicle control or acetyl-bufalin (25, 50, 100 nM). The migration of cells to the wound area was photographed at the 0, 24 and 48 h timepoints with a microscope and imaging system (Leica, Wetzlar, Germany).

caspase-3 = assay: Caspase-3 activity assay; format: cell-based; settings: human NSCLC cells (H460, PC-9), 24 h
Protocol: The caspase-3 assay was performed as described previously.[23] According to the manufacturer’s protocol, the activity of caspase‐3 was evaluated by using a caspase‐3 colorimetric assay kit (Abcam, Cambridge, UK). H460 and PC-9 cells were collected and resuspended in lysis buffer. After incubation on ice for 10 min, the cell lysate was centrifuged at 12,000 rpm for 10 min at 4 °C, and the protein concentration in the supernatants was measured using the Bradford dye method. The supernatants were incubated with a reaction buffer containing 200 µM devd-p-nitroanilide, for caspase‐3 in a caspase assay buffer at 37 °C with 10 mM dithiothreitol for 2 h. The activity of caspase-3 was determined by measuring the absorbance at 405 nm. Each experiment was done in triplicate for three independent experiments.

human NSCLC cells = assay: Colony-formation assay; format: cell-based; settings: 50, 100, 200 nM for 24 h, colonies after 7 days
Protocol: The human NSCLC cells and normal cells were seeded at 1000 cells/well on six-well plates, placed in 5% CO2 atmosphere and cultured overnight at 37 °C. DMSO (Control) and acetyl-bufalin (50, 100, 200 nM) were added to the cells for 24 h. The fresh medium was replaced every 2 days to maintain the growth of cells for 7 days. Colonies were washed with phosphate-buffered saline (PBS), fixed with 4% paraformaldehyde at room temperature for 15 min, washed with purified water for three times and stained with Crystal violet for 10 min. Each experiment was in triplicate, and three independent experiments were carried out.

H460 cells = assay: MTT cytotoxicity assay, H460 cells; format: cell-based; settings: Homo sapiens, NCI-H460; H460 cells, 48 h, MTT; read-out: IC50
Protocol: as §1

CC(=O)OC1CCC2(C)C(CCC3C2CCC2(C)C(c4ccc(=O)oc4)CCC32O)C1 (stereo not drawn) [acetyl-bufalin]
P-STAT3 protein levels (P-STAT3): reduced
cytotoxic effect on normal cells [1]: low toxicity
cell proliferation of siCDK9 cells (H460 and PC-9 cells; H460 and PC-9 transfected with CDK9 siRNA1, 48 h): did not significantly affect
cell proliferation of control siRNA cells (H460 and PC-9 cells; H460 and PC-9 transfected with control siRNA, 48 h): hampered cell proliferation
P-STAT3 activation (luciferase reporter) (STAT3): significantly inhibited
PC-9 cell migration (PC-9 cells): markedly blocked
BAX expression and caspase-3 activity (caspase-3): dose-dependently increased
NSCLC cell cloning ability (human NSCLC cells): inhibited dose-dependently
IC50 (H460 cells): 0.0278 µM
